Eight molecules from ChEMBL document CHEMBL1275512, “Comparative in vitro activities of the investigational fluoroquinolone DC-159a and other antimicrobial agents against human mycoplasmas and ureaplasmas” (2008) can be followed below.

SMILES strings stand for the structures. Values after ≈ are worked out from the molar mass of the structure shown. Active and inactive are the calls of the source. No cut-off for these calls is given here.

The test system of assay [1] is Ureaplasma parvum. Briefly: Antimicrobial activity against Ureaplasma parvum by broth microdilution method. The assay is classed as functional. On the technique in general: In broth dilution the organism is exposed to a series of concentrations in liquid medium.
Assay [2] concerns Mycoplasmoides pneumoniae. Briefly: Bactericidal activity against Mycoplasma pneumoniae assessed as log reduction in bacterial load at MIC after 24 hrs. The assay is classed as functional.
For assay [3], the system named is Mycoplasmoides pneumoniae. Briefly: Bactericidal activity against Mycoplasma pneumoniae assessed as log reduction in bacterial load at MIC after 72 hrs. The assay is classed as functional.
Another assay concerns Ureaplasma urealyticum. Briefly: Antimicrobial activity against Ureaplasma urealyticum by broth microdilution method. The assay is classed as functional.
For another assay, the system named is Mycoplasma genitalium. Briefly: Antimicrobial activity against Mycoplasma genitalium by broth microdilution method. The assay is classed as functional. Particulars: Mycoplasmoides genitalium.
The subject of a further assay is Metamycoplasma hominis. Briefly: Antimicrobial activity against Mycoplasma hominis by broth microdilution method. The assay is classed as functional.
For another assay, the system named is Mycoplasma fermentans. Briefly: Antimicrobial activity against Mycoplasma fermentans by broth microdilution method. The assay is classed as functional. Particulars: Mycoplasmopsis fermentans.
In assay [4] the test system is Ureaplasma parvum. Briefly: Antimicrobial activity against fluoroquinolone-resistant Ureaplasma parvum by broth microdilution method. The assay is classed as functional.
In assay [5] the test system is Mycoplasmoides pneumoniae. Briefly: Antimicrobial activity against Mycoplasma pneumoniae by broth microdilution method. The assay is classed as functional.
Assay [6] relates to Mycoplasmoides pneumoniae. Briefly: Bactericidal activity against Mycoplasma pneumoniae at 8 X MIC after 120 hrs. The assay is classed as functional, organism-based.
Assay [7] concerns Mycoplasmoides pneumoniae. Briefly: Bactericidal activity against Mycoplasma pneumoniae at MIC after 48 hrs. The assay is classed as functional, organism-based.

In the case of `COc1c(N2CC3(CC3)[C@](C)(N)C2)c(F)cc2c(=O)c(C(=O)O)cn([C@@H]3C[C@@H]3F)c12`, the MIC50 (as a rule, an inhibitory concentration at the 50% level, which refers to growth in some studies and to a panel of isolates in others) in the assay with Ureaplasma parvum [1] came to 0.5 µg/mL (≈ 1.19 µM); against Ureaplasma urealyticum it was 0.5 µg/mL (≈ 1.19 µM); in the assay on Metamycoplasma hominis, 0.125 µg/mL (≈ 0.298 µM); against Mycoplasma fermentans, 0.016 µg/mL (≈ 0.0381 µM); in assay [5], 0.063 µg/mL (≈ 0.15 µM). The MIC90 (commonly the lowest concentration that inhibits either 90% of growth or 90% of the strains tested, depending on the study) with Ureaplasma parvum [1] was 2 µg/mL (≈ 4.77 µM); with Ureaplasma urealyticum, 1 µg/mL (≈ 2.38 µM); in the assay with Metamycoplasma hominis it was 0.25 µg/mL (≈ 0.596 µM); in the assay on Mycoplasma fermentans, 0.032 µg/mL (≈ 0.0763 µM); in assay [5], 0.063 µg/mL (≈ 0.15 µM). For the same molecule, the FC in assay [2] and in [3] was 3 throughout. For the same molecule, the figures for the MIC in the assay on Mycoplasma genitalium and in the assay with Ureaplasma parvum [4] were 0.016 µg/mL (≈ 0.0381 µM) and 4 µg/mL (≈ 9.54 µM), respectively.

As for `CC[C@H]1OC(=O)[C@H](C)[C@@H](O[C@H]2C[C@@](C)(OC)[C@@H](O)[C@H](C)O2)[C@H](C)[C@@H](O[C@@H]2O[C@H](C)C[C@H](N(C)C)[C@H]2O)[C@](C)(O)C[C@@H](C)CN(C)[C@H](C)[C@@H](O)[C@]1(C)O` [AZITHROMYCIN], the MIC50 was 1 µg/mL (≈ 1.34 µM) against Ureaplasma parvum [1], 2 µg/mL (≈ 2.67 µM) against Ureaplasma urealyticum and at most 0.001 µg/mL in assay [5]. Further, the values for the MIC90 (against Ureaplasma parvum [1]; in the assay with Ureaplasma urealyticum; in assay [5]) were 2 µg/mL (≈ 2.67 µM), 4 µg/mL (≈ 5.34 µM) and at most 0.001 µg/mL, respectively. The MIC (against Mycoplasma genitalium; in assay [5]) was at most 0.001 µg/mL throughout.

On to `O=C(O)c1cn(C2CC2)c2cc(N3CCNCC3)c(F)cc2c1=O` [CIPROFLOXACIN], for which the MIC50 came out at 2 µg/mL (≈ 6.04 µM) with Ureaplasma parvum [1]; 4 µg/mL (≈ 12.1 µM) in the assay on Ureaplasma urealyticum; 0.5 µg/mL (≈ 1.51 µM) in the assay with Metamycoplasma hominis; 0.063 µg/mL (≈ 0.19 µM) against Mycoplasma fermentans; 2 µg/mL (≈ 6.04 µM) in assay [5]. The MIC90 in the assay with Ureaplasma parvum [1] was 16 µg/mL (≈ 48.3 µM); in the assay on Ureaplasma urealyticum it was 8 µg/mL (≈ 24.1 µM); in the assay with Metamycoplasma hominis, 1 µg/mL (≈ 3.02 µM); against Mycoplasma fermentans, 0.125 µg/mL (≈ 0.377 µM); in assay [5], 4 µg/mL (≈ 12.1 µM). For the same molecule, the MIC (as a rule, the least concentration at which growth counts as inhibited) was 0.5 µg/mL (≈ 1.51 µM) in the assay on Mycoplasma genitalium and 32 µg/mL (≈ 96.6 µM) in the assay on Ureaplasma parvum [4].

Take `C[C@H]1c2cccc(O)c2C(=O)C2=C(O)[C@]3(O)C(=O)C(C(N)=O)=C(O)[C@@H](N(C)C)[C@@H]3[C@@H](O)[C@@H]21.O` [DOXYCYCLINE]: the MIC50 in the assay with Ureaplasma parvum [1] was 0.125 µg/mL; in the assay on Ureaplasma urealyticum it was 0.125 µg/mL; with Metamycoplasma hominis, 2 µg/mL; with Mycoplasma fermentans, 0.25 µg/mL; in [5] it was 0.25 µg/mL. For the same molecule, the MIC90 against Ureaplasma parvum [1] was determined as 2 µg/mL; in the assay on Ureaplasma urealyticum, 0.5 µg/mL; with Metamycoplasma hominis, 8 µg/mL; against Mycoplasma fermentans, 1 µg/mL; in assay [5] it was 0.5 µg/mL. Besides, 0.032 µg/mL was the least that counted as inhibitory against Mycoplasma genitalium (MIC).

Turning to `CC[C@H]1OC(=O)[C@H](C)[C@@H](O[C@H]2C[C@@](C)(OC)[C@@H](O)[C@H](C)O2)[C@H](C)[C@@H](O[C@@H]2O[C@H](C)C[C@H](N(C)C)[C@H]2O)[C@](C)(O)C[C@@H](C)C(=O)[C@H](C)[C@@H](O)[C@]1(C)O` [ERYTHROMYCIN], the MIC50 worked out at 1 µg/mL (≈ 1.36 µM) with Ureaplasma parvum [1]; 2 µg/mL (≈ 2.73 µM) with Ureaplasma urealyticum; 0.016 µg/mL (≈ 0.0218 µM) in the assay on Metamycoplasma hominis; 0.032 µg/mL (≈ 0.0436 µM) in the assay with Mycoplasma fermentans; 0.004 µg/mL (≈ 0.00545 µM) in assay [5]. The MIC90 in the assay with Ureaplasma parvum [1] was determined as 4 µg/mL (≈ 5.45 µM); in the assay with Ureaplasma urealyticum, 4 µg/mL (≈ 5.45 µM); in the assay with Metamycoplasma hominis it was 0.032 µg/mL (≈ 0.0436 µM); against Mycoplasma fermentans it was 0.125 µg/mL (≈ 0.17 µM); in assay [5], 0.004 µg/mL (≈ 0.00545 µM). This molecule showed an MIC with Mycoplasma genitalium of at most 0.001 µg/mL. Besides, the outcome in assay [6] was Active.

As for `C[C@H]1COc2c(N3CCN(C)CC3)c(F)cc3c(=O)c(C(=O)O)cn1c23.C[C@H]1COc2c(N3CCN(C)CC3)c(F)cc3c(=O)c(C(=O)O)cn1c23.O` [LEVOFLOXACIN], the MIC amounted to 0.5 µg/mL in the assay on Ureaplasma parvum [1], 1 µg/mL in the assay with Mycoplasma genitalium and 16 µg/mL in the assay on Ureaplasma parvum [4]. For the same molecule, the MIC50 in the assay on Ureaplasma parvum [1] came to 0.5 µg/mL; against Ureaplasma urealyticum it was 1 µg/mL; against Metamycoplasma hominis it was 0.25 µg/mL; in the assay on Mycoplasma fermentans, 0.063 µg/mL; in [5], 0.5 µg/mL. Besides, the MIC90 was found to be 2 µg/mL in the assay with Ureaplasma parvum [1]; 1 µg/mL in the assay on Ureaplasma urealyticum; 0.5 µg/mL against Metamycoplasma hominis; 0.125 µg/mL in the assay with Mycoplasma fermentans; 1 µg/mL in [5].

As to `COc1c(N2C[C@@H]3CCCN[C@@H]3C2)c(F)cc2c(=O)c(C(=O)O)cn(C3CC3)c12` [MOXIFLOXACIN], the MIC50 in the assay on Ureaplasma parvum [1] stood at 0.5 µg/mL (≈ 1.25 µM); against Ureaplasma urealyticum, 0.25 µg/mL (≈ 0.623 µM); against Metamycoplasma hominis, 0.063 µg/mL (≈ 0.157 µM); with Mycoplasma fermentans, 0.032 µg/mL (≈ 0.0797 µM); in assay [5], 0.125 µg/mL (≈ 0.311 µM). Also, the MIC90 against Ureaplasma parvum [1] worked out at 2 µg/mL (≈ 4.98 µM); against Ureaplasma urealyticum, 0.5 µg/mL (≈ 1.25 µM); against Metamycoplasma hominis, 0.063 µg/mL (≈ 0.157 µM); in the assay with Mycoplasma fermentans it was 0.063 µg/mL (≈ 0.157 µM); in assay [5] it was 0.125 µg/mL (≈ 0.311 µM). Besides, the result in assay [7] was Active. Moreover, the MIC in the assay on Ureaplasma urealyticum is 0.25 µg/mL (≈ 0.623 µM); against Mycoplasma genitalium it was 0.016 µg/mL (≈ 0.0399 µM); against Ureaplasma parvum [4] it was 4 µg/mL (≈ 9.96 µM).

Take `CN(C)[C@@H]1C(O)=C(C(N)=O)C(=O)[C@@]2(O)C(O)=C3C(=O)c4c(O)cccc4[C@@](C)(O)[C@H]3C[C@@H]12` [TETRACYCLINE]: the MIC50 (against Ureaplasma parvum [1]; in the assay with Ureaplasma urealyticum; in the assay with Metamycoplasma hominis; in the assay with Mycoplasma fermentans; in assay [5]) was 0.5 µg/mL (≈ 1.13 µM) each time. The MIC90 in the assay on Ureaplasma parvum [1] was found to be 8 µg/mL (≈ 18 µM); with Ureaplasma urealyticum it was 2 µg/mL (≈ 4.5 µM); against Metamycoplasma hominis, 16 µg/mL (≈ 36 µM); in the assay on Mycoplasma fermentans, 1 µg/mL (≈ 2.25 µM); in [5], 1 µg/mL (≈ 2.25 µM). In the assay on Mycoplasma genitalium, this molecule returned an MIC of 0.25 µg/mL (≈ 0.563 µM).
